In US20240350430A1, “GROWTH INHIBITOR OF METASTATIC HUMAN PROSTATE CANCER CELLS” (Watanabe Oyster Laboratory Co., Ltd., priority 2021, published 2024):

Key:
[1] = system: PC-3 cells; assay: Western blot of protein expression levels in PC-3 cells; assay type: cell-based, human; conditions: DHMBA 10 μM, three days
Experimental: The PC-3 cells (1×10^6 cells/10 ml, 100-mm dish) were cultured in a DMEM culture fluid containing 10% of FBS, 1% of P/S, and 1% of fungizone under 5% of CO2, at 37° C., for three days. In addition, the culture fluid contained the DHMBA (10 μM). After the culture, the cells were adjusted by adding a cell lysis buffer (Cell Signaling Technology, Danvers, MA, USA) containing proteolytic enzyme and a protein phosphatase activity inhibitor. The cell solution was centrifuged at 17,000×g at 4° C. for 10 minutes to collect the supernatant. An amount of protein in the supernatant was measured using Bio-Rad Protein Assay Dye (Bio-Rad Laboratories, Inc., Hercules, CA, USA) with albumin as reference protein. Protein samples were stored in a freezer at −80° C. until being used. Using 40 μg of a protein sample solution, the product was added to SDS polyacrylamide gel electrophoresis (SDS-PAGE, 12%) and separated. After that, the protein molecules were transferred to a nylon membrane. Immunoblot was performed on the membrane using an antibody that specifically bound to the protein molecules. The antibodies, such as Ras (cat. no. 3339, rabbit), Akt (cat. no. 9272, rabbit), mitogen-activated protein kinase (MAPK: cat. no. 4695, rabbit), phosphorylated-MAPK (cat. no. 4370, rabbit), mechanistic target of rapamycin (mTOR, cat. no. 4517, mouse), Rb (cat. no. 9309, mouse), p21 (cat. no. 2947, rabbit), caveolin-1 (cat. no. 3267, rabbit), and β-actin (cat. no. 3700, mouse), were purchased from Cell Signaling Technology (Danvers, MA, USA). Also, p53 (cat. no. sc-126, mouse), NF-κB p65 (cat. no. sc-109, rabbit), and integrin β1 (cat. no. sc-13590, mouse) were obtained from Santa Cruz Biotechnology, Inc. (Santa Cruz, CA, USA). In addition, rabbit anti-regucalcin antibody was purchased from Sigma-Aldrich (cat. no. HPA029103, rabbit). Target proteins were incubated at low temperature for 16 hours using the primary antibodies described above. After that, using a secondary antibody of horseradish peroxidase-conjugated secondary antibodies (Santa Cruz Biotechnology, Inc., mouse sc-2005 or rabbit sc-2305; diluted 1:1,000), incubation was performed for 60 minutes at room temperature. After that, protein bands were illuminated with chemiluminescence substrate (cat. no. 34577, Thermo Scientific, Rockford, IL, USA) and exposed and detected on X-ray films using a developer.
(§1) The PC-3 cells (1×10^6 cells/10 ml, 100-mm dish) were cultured under 5% of CO2, at 37° C., for three days in a DMEM culture fluid containing 10% of FBS, 1% of P/S, and 1% of fungizone. In addition, the culture fluid contained the DHMBA (10 μM). After the culture, the cells were adjusted by adding a cell lysis buffer (Cell Signaling Technology, Danvers, MA, USA) containing proteolytic enzyme and a protein phosphatase activity inhibitor. Using 40 μg of a protein sample solution, the product was separated by SDS polyacrylamide gel electrophoresis (SDS-PAGE, 12%). After that, the protein molecules were transferred to a nylon membrane. Immunoblot was performed on the membrane using an antibody that specifically bound to the protein molecules.
as §1, with “In FIG. 5(G), the” for “The”, “molecules. […]” for “molecules.”

[2] = system: DU-145 cells; assay: Cell migration scratch assay, DU-145 cells; assay type: cell-based, human; conditions: DHMBA 1, 10, 100, or 1000 μM, 48 hours
Experimental: The migration of the prostate cancer PC-3 and DU-145 cells was examined using a scratch assay. The PC-3 and DU-145 cells (the cell number of 2×10^5/in 1 ml of a culture fluid per hole using a 24-hole plate) were cultured in a DMEM culture fluid containing 10% of FBS, 1% of P/S, and 1% of fungizone under 5% of CO2, at 37° C., for 48 hours, and a straight line scratch was performed using a pipette tip (200 μl) when the cells reached confluence. Free cells were washed with PBS to be removed, the above-described culture fluid (containing 0.1, 1, 10, 100, or 1000 μM of the DHMBA) was added, and the cells were cultured for 48 hours. After the culture, intervals of cell-free parts were measured.
The PC-3 and DU-145 cells (the cell number of 2× 10^5/1 ml of a culture fluid per hole using a 24-hole plate) were cultured under 5% of CO2, at 37° C., for 48 hours in a DMEM culture fluid containing 10% of FBS, 1% of P/S, and 1% of fungizone, and a straight line scratch was performed using a pipette tip (200 μl) when the cells reached confluence. Free cells were washed with PBS to be removed, the above-described culture fluid (containing 0.1, 1, 10, 100, or 1000 μM of the DHMBA) was added, and the cells were cultured for 48 hours. After the culture, intervals of cell-free parts were measured. […]

SMILES: COc1c(O)cc(CO)cc1O [DHMBA, 3,5-dihydroxy-4-methoxybenzyl alcohol]
- expression level of Akt [1]: significantly inhibited
- expression level of MAP kinase [1]: significantly inhibited
- expression level of NF-κB p65 [1]: significantly decreased
- expression level of PI3 kinase [1]: significantly inhibited
- expression level of Ras [1]: significantly inhibited
- expression level of Rb [1]: significantly increased
- expression level of caveolin-1 [1]: significantly decreased
- expression level of integrin β1 [1]: significantly decreased
- expression level of mTOR [1]: significantly inhibited
- expression level of p21 [1]: significantly increased
- expression level of p53 [1]: significantly increased
- expression level of phospho-MAP kinase [1]: significantly inhibited
- expression level of regucalcin [1]: significantly increased
- level of activated caspase 3 (cleaved caspase-3) [1]: increased
- level of caspase 3 [1]: increased
- migration [2]: significantly inhibited
